Reference: PubChem BioAssay (NCI)
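Tested at 5 concentrations; 48 h exposure; 96-well plates; endpoints linearly interpolated, else capped at highest concentration. GI50 marks 50% less growth. TGI: concentration producing complete growth inhibition.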

Assays:
Experiment in all cases: NCI anticancer screen, dose series, 48 h
MDA-MB-231 breast = system: MDA-MB-231 breast
SK-MEL-2 melanoma = system: SK-MEL-2 melanoma
SK-MEL-28 melanoma = system: SK-MEL-28 melanoma
SK-MEL-5 melanoma = system: SK-MEL-5 melanoma
CCRF-CEM leukemia = system: CCRF-CEM leukemia
UACC-62 melanoma = system: UACC-62 melanoma
TK-10 renal = system: TK-10 renal
LOX IMVI melanoma = system: LOX IMVI melanoma
OVCAR-5 ovarian = system: OVCAR-5 ovarian
HL-60(TB) leukemia = system: HL-60(TB) leukemia
SN12C renal = system: SN12C renal
IGROV1 ovarian = system: IGROV1 ovarian
MCF7 breast = system: MCF7 breast
EKVX NSCLC = system: EKVX NSCLC
NCI-H522 lung = system: NCI-H522 lung
RXF 393 renal = system: RXF 393 renal
HCC-2998 colon = system: HCC-2998 colon
ACHN renal = system: ACHN renal
NCI-H460 lung = system: NCI-H460 lung
UO-31 renal = system: UO-31 renal
COLO 205 colon = system: COLO 205 colon
CAKI-1 renal = system: CAKI-1 renal
OVCAR-4 ovarian = system: OVCAR-4 ovarian
A498 renal = system: A498 renal
HOP-92 NSCLC = system: HOP-92 NSCLC
HT29 colon = system: HT29 colon
NCI/ADR-RES ovarian = system: NCI/ADR-RES ovarian
NCI-H226 lung = system: NCI-H226 lung
SK-OV-3 ovarian = system: SK-OV-3 ovarian
RPMI-8226 leukemia = system: RPMI-8226 leukemia
SR leukemia = system: SR leukemia
KM12 colon = system: KM12 colon
A549 NSCLC = system: A549 NSCLC
OVCAR-8 ovarian = system: OVCAR-8 ovarian
PC-3 prostate = system: PC-3 prostate
MALME-3M melanoma = system: MALME-3M melanoma
HS 578T breast = system: HS 578T breast
NCI-H23 lung = system: NCI-H23 lung
SNB-19 CNS = system: SNB-19 CNS
BT-549 breast = system: BT-549 breast
HCT-116 colon = system: HCT-116 colon
SW-620 colon = system: SW-620 colon
MOLT-4 leukemia = system: MOLT-4 leukemia
DU-145 prostate = system: DU-145 prostate
M14 melanoma = system: M14 melanoma
UACC-257 melanoma = system: UACC-257 melanoma
HOP-62 NSCLC = system: HOP-62 NSCLC
MDA-MB-435 = system: MDA-MB-435
HCT-15 colon = system: HCT-15 colon
OVCAR-3 ovarian = system: OVCAR-3 ovarian
SF-539 CNS = system: SF-539 CNS
786-0 renal = system: 786-0 renal
MDA-MB-468 breast = system: MDA-MB-468 breast
K-562 leukemia = system: K-562 leukemia
SF-295 CNS = system: SF-295 CNS
U251 CNS = system: U251 CNS
SNB-75 CNS = system: SNB-75 CNS
SF-268 CNS = system: SF-268 CNS

Cn1cc(-c2nc(N)nnc2-c2c[nH]c3ccc(Br)cc23)c2cc(Br)cnc21
GI50 (MDA-MB-231 breast): 442 nM | TGI (MDA-MB-231 breast): 11700 nM | GI50 (SK-MEL-2 melanoma): 194 nM | TGI (SK-MEL-2 melanoma): 14800 nM | GI50 (SK-MEL-28 melanoma): 324 nM | TGI (SK-MEL-28 melanoma): 17800 nM | GI50 (SK-MEL-5 melanoma): 114 nM | TGI (SK-MEL-5 melanoma): 3910 nM | GI50 (CCRF-CEM leukemia): 279 nM | TGI (CCRF-CEM leukemia): > 100000 nM | GI50 (UACC-62 melanoma): 47.3 nM | TGI (UACC-62 melanoma): 16400 nM | GI50 (TK-10 renal): 12600 nM | TGI (TK-10 renal): 50400 nM | GI50 (LOX IMVI melanoma): 299 nM | TGI (LOX IMVI melanoma): 15800 nM | GI50 (OVCAR-5 ovarian): 422 nM | TGI (OVCAR-5 ovarian): 15600 nM | GI50 (HL-60(TB) leukemia): 144 nM | TGI (HL-60(TB) leukemia): 824 nM | GI50 (SN12C renal): 423 nM | TGI (SN12C renal): 14500 nM | GI50 (IGROV1 ovarian): 398 nM | TGI (IGROV1 ovarian): 18800 nM | GI50 (MCF7 breast): 58.3 nM | TGI (MCF7 breast): 15900 nM | GI50 (EKVX NSCLC): 881 nM | TGI (EKVX NSCLC): 23700 nM | GI50 (NCI-H522 lung): 21.2 nM | TGI (NCI-H522 lung): 61.9 nM | GI50 (RXF 393 renal): 167 nM | TGI (RXF 393 renal): 3840 nM | GI50 (HCC-2998 colon): 379 nM | TGI (HCC-2998 colon): 11400 nM | GI50 (ACHN renal): 748 nM | TGI (ACHN renal): 13200 nM | GI50 (NCI-H460 lung): 349 nM | TGI (NCI-H460 lung): 11200 nM | GI50 (UO-31 renal): 349 nM | TGI (UO-31 renal): 16500 nM | GI50 (COLO 205 colon): 248 nM | TGI (COLO 205 colon): 762 nM | GI50 (CAKI-1 renal): 184 nM | TGI (CAKI-1 renal): 18200 nM | GI50 (OVCAR-4 ovarian): 978 nM | TGI (OVCAR-4 ovarian): 20200 nM | GI50 (A498 renal): 662 nM | TGI (A498 renal): 5320 nM | GI50 (HOP-92 NSCLC): 1270 nM | TGI (HOP-92 NSCLC): 11400 nM | GI50 (HT29 colon): 269 nM | TGI (HT29 colon): 1040 nM | GI50 (NCI/ADR-RES ovarian): 432 nM | TGI (NCI/ADR-RES ovarian): 7080 nM | GI50 (NCI-H226 lung): 582 nM | TGI (NCI-H226 lung): 8660 nM | GI50 (SK-OV-3 ovarian): 432 nM | TGI (SK-OV-3 ovarian): 20200 nM | GI50 (RPMI-8226 leukemia): 422 nM | TGI (RPMI-8226 leukemia): > 100000 nM | GI50 (SR leukemia): 43 nM | TGI (SR leukemia): > 52900 nM | GI50 (KM12 colon): 146 nM | TGI (KM12 colon): 11300 nM | GI50 (A549 NSCLC): 455 nM | TGI (A549 NSCLC): 29100 nM | GI50 (OVCAR-8 ovarian): 450 nM | TGI (OVCAR-8 ovarian): 9020 nM | GI50 (PC-3 prostate): 130 nM | TGI (PC-3 prostate): 30100 nM | GI50 (MALME-3M melanoma): 135 nM | TGI (MALME-3M melanoma): 20300 nM | GI50 (HS 578T breast): 285 nM | TGI (HS 578T breast): 38000 nM | GI50 (NCI-H23 lung): 373 nM | TGI (NCI-H23 lung): 14900 nM | GI50 (SNB-19 CNS): 454 nM | TGI (SNB-19 CNS): 16500 nM | GI50 (BT-549 breast): 227 nM | TGI (BT-549 breast): 7720 nM | GI50 (HCT-116 colon): 141 nM | TGI (HCT-116 colon): 3360 nM | GI50 (SW-620 colon): 217 nM | TGI (SW-620 colon): 18400 nM | GI50 (MOLT-4 leukemia): 341 nM | TGI (MOLT-4 leukemia): 20300 nM | GI50 (DU-145 prostate): 352 nM | TGI (DU-145 prostate): 12800 nM | GI50 (M14 melanoma): 148 nM | TGI (M14 melanoma): 13900 nM | GI50 (UACC-257 melanoma): 11000 nM | TGI (UACC-257 melanoma): 23500 nM | GI50 (HOP-62 NSCLC): 420 nM | TGI (HOP-62 NSCLC): 19500 nM | GI50 (MDA-MB-435): 32 nM | TGI (MDA-MB-435): 120 nM | GI50 (HCT-15 colon): 177 nM | TGI (HCT-15 colon): 11000 nM | GI50 (OVCAR-3 ovarian): 64.9 nM | TGI (OVCAR-3 ovarian): 2510 nM | GI50 (SF-539 CNS): 154 nM | TGI (SF-539 CNS): 532 nM | GI50 (786-0 renal): 422 nM | TGI (786-0 renal): 16100 nM | GI50 (MDA-MB-468 breast): 69 nM | TGI (MDA-MB-468 breast): 1030 nM | GI50 (K-562 leukemia): 49 nM | TGI (K-562 leukemia): > 35600 nM | GI50 (SF-295 CNS): 75 nM | TGI (SF-295 CNS): 12800 nM | GI50 (U251 CNS): 349 nM | TGI (U251 CNS): 13300 nM | GI50 (SNB-75 CNS): 192 nM | TGI (SNB-75 CNS): 2910 nM | GI50 (SF-268 CNS): 1620 nM | TGI (SF-268 CNS): 22000 nM
